As usually defined, the IC50 is the concentration that inhibits the measured activity by half. Low values mean greater potency, high ones weaker potency.

Sequence of TIE-2 (Q02763 23-1124, species assumed): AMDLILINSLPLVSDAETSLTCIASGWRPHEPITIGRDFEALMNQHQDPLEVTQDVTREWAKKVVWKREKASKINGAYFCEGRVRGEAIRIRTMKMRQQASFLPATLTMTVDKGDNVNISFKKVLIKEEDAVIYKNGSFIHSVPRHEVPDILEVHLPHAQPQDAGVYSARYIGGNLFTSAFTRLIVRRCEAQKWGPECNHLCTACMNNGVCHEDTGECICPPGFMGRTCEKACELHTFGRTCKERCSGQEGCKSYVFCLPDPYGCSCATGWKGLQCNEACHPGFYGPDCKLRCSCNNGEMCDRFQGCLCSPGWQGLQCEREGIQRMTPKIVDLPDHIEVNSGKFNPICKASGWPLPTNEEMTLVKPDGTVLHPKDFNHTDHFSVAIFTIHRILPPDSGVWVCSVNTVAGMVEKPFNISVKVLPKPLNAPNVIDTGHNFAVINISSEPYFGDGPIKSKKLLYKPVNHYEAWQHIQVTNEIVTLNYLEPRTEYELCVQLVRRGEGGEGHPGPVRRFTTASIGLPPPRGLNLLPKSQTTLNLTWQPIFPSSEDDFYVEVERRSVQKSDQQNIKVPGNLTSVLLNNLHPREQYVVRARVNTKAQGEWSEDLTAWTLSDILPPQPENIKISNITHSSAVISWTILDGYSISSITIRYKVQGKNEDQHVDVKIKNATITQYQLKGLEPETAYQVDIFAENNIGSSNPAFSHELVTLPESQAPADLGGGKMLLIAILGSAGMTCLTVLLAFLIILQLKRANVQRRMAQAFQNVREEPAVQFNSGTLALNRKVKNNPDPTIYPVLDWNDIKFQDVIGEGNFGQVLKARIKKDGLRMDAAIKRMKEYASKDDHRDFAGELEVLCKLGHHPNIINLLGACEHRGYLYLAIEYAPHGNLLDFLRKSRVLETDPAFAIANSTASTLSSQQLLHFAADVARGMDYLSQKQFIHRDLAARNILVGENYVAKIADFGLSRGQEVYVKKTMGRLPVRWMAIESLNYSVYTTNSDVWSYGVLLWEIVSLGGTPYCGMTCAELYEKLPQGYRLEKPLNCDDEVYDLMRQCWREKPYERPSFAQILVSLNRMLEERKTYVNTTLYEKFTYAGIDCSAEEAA

In this assay the target is TIE-2 (Homo sapiens, UniProt Q02763). Kind of assay: Inhibition of TIE-2 (flashplate kinase assay, poly(Glu, Tyr) phosphorylation, 33P-ATP). Format: biochemical. The protocol:
The TIE-2 tests can be carried out, for example, analogously to the methods indicated in WO 02/44156.
The assay determines the inhibiting activity of the substances to be tested in the phosphorylation of the substrate poly(Glu, Tyr) by Tie-2 kinase in the presence of radioactive ^33P-ATP. The phosphorylated substrate binds to the surface of a “flashplate” microtitre plate during the incubation time. After removal of the reaction mixture, the microtitre plate is washed a number of times and the radioactivity on its surface is subsequently measured. An inhibiting effect of the substances to be measured results in lower radioactivity compared with an undisturbed enzymatic reaction.
`Cc1ccc2nc(Nc3ccc(Oc4ccncc4)cc3)[nH]c2c1` [(3), (6-Methyl-1H-benzimidazol-2-yl)[4-(pyridin-4-yloxy)phenyl]amine] registered an IC50 of 4 µM. In other words, the single-digit micromolar range. With `FC(F)(F)c1cc(Br)c2nc(Nc3ccc(Oc4ccncc4)cc3)[nH]c2c1` [(5), (4-Bromo-6-trifluoromethyl-1H-benzimidazol-2-yl)[4-(pyridin-4-yloxy)phenyl]amine] the figure was 0.5 µM; with `FC(F)(F)c1cc(Cl)c2nc(Nc3ccc(Oc4ccncc4)cc3)[nH]c2c1` [(14), (4-Chloro-6-trifluoromethyl-1H-benzimidazol-2-yl)[4-(pyridin-4-yloxy)phenyl]amine], 0.9 µM.

The record behind these values is patent US7470702B2, “Benzimidazoles” (Merck Patent GmbH, priority 2003, dated 2008).
